From US10456390B2, “Combinations comprising MABA compounds and corticosteroids” (ALMIRALL, S.A., priority 2013, dated 2019)

Test system: IL-8 secretion induced by LPS in peripheral blood neutrophils
Assay: Inhibition of IL-8 secretion induced by LPS in isolated peripheral blood neutrophils (ELISA)
Assay type: cell-based
Settings: Homo sapiens, Neutrophil; for inhibition at 10 pM: single agent at 0.01 nM
Procedure: 5 Healthy subjects were included for leukocyte experiments. Pulmonary function tests (forced spirometry) and arterial blood gas measurements were performed during the days prior to sample.
Neutrophils were isolated from peripheral blood of healthy volunteers according to standard procedures established in the laboratory (Milara J et al., Respiration 2012; 83, 147-158).
Isolated neutrophils were incubated with different drugs (MABA compound, mometasone or fluticasone) or vehicle for 30 minutes before incubation with LPS (1 mcg/mL) (Lipopolysaccharide, a representative stimulus as inflammatory mediator) for 6 hours in standard cell culture conditions (37° C. and 5% CO2). Supernatant were collected to measure IL-8 (the inflammatory marker).
IL-8 (Interleukin-8) was determined by ELISA according to the standard procedure.
Data was presented as mean±SEM (see FIG. 1 and FIG. 2). Statistical analysis of results was carried out by analysis of variance (ANOVA) followed by Bonferroni test, by Student's t test, or by non-parametric tests as appropriate (GraphPad Software Inc, San Diego, Calif., USA). Significance was accepted when P<0.05.

[1] = 30 min pre-incubation, LPS 1 mcg/mL 6 h, neutrophils from healthy subjects (5 volunteers in triplicate), Table 1

Row | SMILES | inhibition at 10 pM [1] [%] | inhibition at 10 pM (LPS-induced IL-8 secretion, neutrophils from healthy subjects, Table 2) [%] | inhibition at 0.0001 µM (single agent at 0.1 nM, LPS-induced IL-8 secretion, neutrophils from healthy subjects, Table 2) [%]
1 | CN(CCCn1nnc2cc(CNC[C@H](O)c3ccc(O)c4[nH]c(=O)ccc34)ccc21)[C@H]1CC[C@H](OC(=O)C(O)(c2cccs2)c2cccs2)CC1 [Cpd 2, Trans-4-[{3-[5-({[(2R)-2-hydroxy-2-(8-hydroxy-2-oxo-1,2-dihydroquinolin-5-yl)ethyl]amino}methyl)-1H-1,2,3-benzotriazol-1-yl]propyl}(methyl)amino]cyclohexyl hydroxy(di-2-thienyl)acetate] | 4.17 | 4.17 | –
2 | C[C@@H]1C[C@H]2[C@@H]3C[C@H](F)C4=CC(=O)C=C[C@]4(C)[C@@]3(F)[C@@H](O)C[C@]2(C)[C@@]1(O)C(=O)SCF [Fluticasone, fluticasone] | – | – | 10.2
3 | C[C@@H]1C[C@H]2[C@@H]3CCC4=CC(=O)C=C[C@]4(C)[C@@]3(Cl)[C@@H](O)C[C@]2(C)[C@@]1(O)C(=O)CCl [Mometasone, mometasone] | 2.85 | – | –
